Residue numbers refer to the chain shown, from its start. Names and notes keep the numbering of the source.
Assays:
endogenous Sgk = assay: Phosphorylation state of Sgk in treated cells; assay type: cell-based; settings: treatment of cells; serum stimulated mammary tumor cells for the PI 3-kinase inhibitors
From the text: (§1) Cotransfection of PDK1 with Sgk caused a 6-fold activation of Sgk activity, whereas, the kinase-dead form of PDK1 had no effect. […] The Ser-78 in the amino terminal domain is a third phosphorylation site and expression of the S78G Sgk mutation ablates the presence of the slowest migrating form of phosphorylated Sgk in SDS polyacrylamide gels.

Sgk = assay: In vitro peptide kinase assay (Sgktide, [32P]ATP) of immunoprecipitated HA-Sgk; assay type: biochemical; settings: for effect of cell treatment on Sgk enzymatic activity: activators or inhibitor of PI 3-kinase pathway; for kinase activity / activation of Sgk mutant: mutant forms of Sgk
From the text: Sgk is a component of the PI3 kinase cascade and is directly activated by PDK1 mediated phosphorylation of threonine 256 in the activation loop. […] To develop this kinase assay, lysates from human embryo kidney 293 cells transfected to express wild type hemagglutinin (HA)-tagged Sgk (HA-Sgk) were isolated and the Sgk immunoprecipitated with HA antibodies was used to screen a synthetic peptide library for identifying potential Sgk substrates. The immunoprecipitates were extensively washed, and incubated with the peptide in the presence of [^32P]ATP in kinase buffer (Park et al 1999). Sgk phosphorylated several peptides, and the best substrate for Sgk was KKRNRRLSVA (SEQ ID NO:01), which is named Sgktide. […] This substrate specificity is generally similar to, but not identical, with the substrate specificity for Akt, which is a well characterized down stream component of the PI 3 kinase pathway.
as §1

Sgk and Erk/MAPK = assay: Subcellular localization of Sgk and Erk/MAPK in mammary tumor cells; assay type: cell-based; settings: MEK inhibitor treatment
From the text: Sgk/MAPK interactions: new level of cross talk between GR and phosphorylation cascades. We also observed that the enzymatic activity and subcellular localization of Sgk and the Erk1/Erk2 members of the Mitogen Activated Protein Kinase (MAPK) gene family are co-regulated in a stimulus-dependent manner. […] Wild type or kinase dead forms of Sgk can be co-immunoprecipitated with Erk/MAPK from either serum- or dexamethasone-treated mammary tumor cells. […] Conversely, the forced cellular localization of ectopically expressed Sgk into the nucleus, using the NLS-Sgk, or into the cytoplasmic compartment using the wild type sgk gene, caused Erk/MAPK to co-localize with Sgk.

Sgk promoter = assay: Hyperosmotic stress stimulation of Sgk promoter and Sgk protein production; assay type: cell-based, mouse; settings: sorbitol hyperosmotic stress
From the text: Regulation of Sgk transcription, protein utilization and enzymatic activity defines a new cellular component of the hyperosmotic stress pathway. Using mouse NMuMg nontumorigenic mammary epithelial cells, we have established that Sgk is a new component of the hyperosmotic stress response. (The key observations can be repeated in HeLa cells, MCF-7 human breast cancer cells, kidney derived cell and rat fibroblasts). […] This hyperosmotic stress regulated element can confer the hyperosmotic stress response to a heterologous promoter. […] Using a generally similar series of experiments, we have also shown that exposure of mammary epithelial cells to 40 J/m^2 UV radiation causes a rapid but transient stimulation in Sgk protein levels that peaks approximately 2 hours after this genotoxic stress.
The hyperosmotic stress cascade targets the sgk promoter by activating the p38/MAPK stress kinase. […] Co-transfection of the stress responsive Sgk-CAT reporter plasmid with a dominant negative form of MKK3, one of two upstream kinase regulators of the p38/MAPK, inhibits the sorbitol induction of the Sgk promoter.

mammary tumor cells = assay: Transient cell foci growth assay of transfected mammary tumor cells; assay type: cell-based; settings: transfected expression vector
From the text: Functional evidence for a direct role of sgk in the glucocorticoid anti-proliferative pathway. In both the Con8 mammary epithelial tumor cells (from which Sgk was originally cloned) as well as human MCF-7 breast cancer cells (which were originally derived from a pleural effusion of a metastatic human breast adenocarcinoma) glucocorticoids induce a G1 block in cell cycle progression and strongly stimulate sgk transcript and protein production. […] To initially test whether Sgk has an anti-proliferative function and perhaps mediates the glucocorticoid growth inhibitory response, the full length rat or human wild type sgk cDNA was inserted downstream of the cytomegalovirus (CMV) promoter in an expression vector that also encodes the neomycin resistance gene. […] Transfection competent cells were selected in 0.5 mg/ml of the G418 neomycin derivative for two weeks.
Expression vectors encoding several point mutants or truncations of Sgk were transfected into the mammary tumor cells and cell growth monitored by the cell foci assay.
Transient transfection and rapid screen of the sgk expression vectors for the anti-proliferative response in rodent and human mammary tumor cells. A transient cell foci growth assay is employed to rapidly screen the various Sgk constructs to define the domains that mediate the anti-proliferative response in rat and human mammary tumor cells using our optimized conditions. The advantage of this assay is that many different mutant Sgk expression vectors can be simultaneously compared for their growth inhibitory effects. Also, this assay can be used to rapidly assess the proliferative effects of combinations of Sgk and its interacting proteins or substrates. Populations of human MCF-7 breast cancer cells or rat Con8 mammary tumor cells are transfected by the lipofectin transfection procedures and cultured in normally cytotoxic concentrations (750 μg/ml) of the G418 neomycin derivative to recover transfection competent cells. Approximately 5000 transfected cells are cultured as colonies on plastic, and after one to two weeks are fixed and stained in crystal violet/formalin to visualize the cell colonies. The effects on cell proliferation are quantitated by simply counting the resulting cell colonies or by scanning the total cell density on each plate. To provide a control for the fidelity of the cell foci assays, in each experiment, cells transfected with the control vectors (no Sgk sequences) are treated with or without 1 μM dexamethasone because the cells are growth suppressed by this synthetic glucocorticoid. […]

C=C1[C@@H](O)[C@@H]2O[C@]3(CC[C@H](/C=C/[C@@H](C)[C@@H]4CC(C)=C[C@@]5(O[C@H](C[C@@](C)(O)C(=O)O)CC[C@H]5O)O4)O3)CC[C@H]2O[C@@H]1[C@@H](O)C[C@H](C)[C@H]1O[C@@]2(CCCCO2)CC[C@H]1C [okadaic acid] was tested, and the “generation of hyperphosphorylated form of Sgk” value (endogenous Sgk) was “generates a hyperphosphorylated active Sgk”.

For “insulin: hormonal activator of the PI 3-kinase pathway [reference compound]”, the “effect of cell treatment on Sgk enzymatic activity” value (“effect of cell treatment” below) (Sgk) was “stimulated Sgk enzymatic activity”.

With “IGF-1: hormonal activator of the PI 3-kinase pathway [reference compound]” the “effect of cell treatment” value (Sgk) was “stimulated Sgk enzymatic activity”.

For COc1cccc(-c2cc(=O)c3ccccc3o2)c1N [PD98059], the “subcellular distribution of Sgk and Erk/MAPK” value (Sgk and Erk/MAPK) was “caused both Sgk and Erk/MAPK to localize to the cytoplasm”.

pervanadate [reference compound] was tested, and the “effect of cell treatment” value (Sgk) was “stimulated Sgk enzymatic activity”.

C[S+]([O-])c1ccc(-c2nc(-c3ccncc3)c(-c3ccc(F)cc3)[nH]2)cc1 (centres unmarked) [SB203580] was tested, and the “hyperosmotic stress-stimulation of the Sgk promoter and Sgk protein production” value (Sgk promoter) was “dampens the hyperosmotic stress-stimulation of the Sgk promoter and Sgk protein production”.

In the case of Oc1ccc(-c2nc(-c3ccncc3)c(-c3ccc(F)cc3)[nH]2)cc1 [SB202190], the “hyperosmotic stress-stimulation of the Sgk promoter and Sgk protein production” value (Sgk promoter) is reported as “dampens the hyperosmotic stress-stimulation of the Sgk promoter and Sgk protein production”.

B1: T256D/S422D: Sgk double mutation T256D and S422D (protein, UniProt O00141 1-431, looked up, variant T256D S422D)
Serine/threonine-protein …: MTVKTEAAKGTLTYSRMRGMVAILIAFMKQRRMGLNDFIQKIANNSYACKHPEVQSILKISQPQEPELMNANPSPPPSPSQQINLGPSSNPHAKPSDFHFLKVIGKGSFGKVLLARHKAEEVFYAVKVLQKKAILKKKEEKHIMSERNVLLKNVKHPFLVGLHFSFQTADKLYFVLDYINGGELFYHLQRERCFLEPRARFYAAEIASALGYLHSLNIVYRDLKPENILLDSQGHIVLTDFGLCKENIEHNSTTSDFCGTPEYLAPEVLHKQPYDRTVDWWCLGAVLYEMLYGLPPFYSRNTAEMYDNILNKPLQLKPNITNSARHLLEGLLQKDRTKRLGAKDDFMEIKSHVFFSLINWDDLINKKITPPFNPNVSGPNDLRHFDPEFTEEPVPNSIGKSPDSVLVTASVKEAAEAFLGFDYAPPTDSFL
B1 was tested, and the “kinase activity / activation of Sgk mutant” value (“kinase activity / activation” below) (Sgk) was “not constitutively active”.

B2: T256A: Sgk with threonine 256 in the activation loop changed to alanine (protein, UniProt O00141 1-431, looked up, variant T256A)
Serine/threonine-protein …: B1 Serine/threonine-protein … with D256A, D422S
For B2, the “reduction in number of cell foci compared to the vector control” value (mammary tumor cells; G418 selection) was 20 fold.

B3: S422D: Sgk with serine 422 changed to aspartate (protein, UniProt O00141 1-431, looked up, variant S422D)
Serine/threonine-protein …: B1 Serine/threonine-protein … with D256T
B3 was tested, and the “kinase activity / activation” value (Sgk) was “partially active”.

B4: S422A: Sgk with serine 422 changed to alanine (protein, UniProt O00141 1-431, looked up, variant S422A)
Serine/threonine-protein …: B1 Serine/threonine-protein … with D256T, D422A
For B4, the “kinase activity / activation” value (Sgk) was “inhibited Sgk activation”.

B5: T256D: Sgk with threonine 256 changed to aspartate (protein, UniProt O00141 1-431, looked up, variant T256D)
Serine/threonine-protein …: B1 Serine/threonine-protein … with D422S
In the case of B5, the “kinase activity / activation” value (Sgk) is reported as “partially active”.

B6: C1–355: C-terminal Sgk truncation missing the last 75 amino acids (protein, UniProt O00141 1-355, looked up, fragment)
chain: MTVKTEAAKGTLTYSRMRGMVAILIAFMKQRRMGLNDFIQKIANNSYACKHPEVQSILKISQPQEPELMNANPSPPPSPSQQINLGPSSNPHAKPSDFHFLKVIGKGSFGKVLLARHKAEEVFYAVKVLQKKAILKKKEEKHIMSERNVLLKNVKHPFLVGLHFSFQTADKLYFVLDYINGGELFYHLQRERCFLEPRARFYAAEIASALGYLHSLNIVYRDLKPENILLDSQGHIVLTDFGLCKENIEHNSTTSTFCGTPEYLAPEVLHKQPYDRTVDWWCLGAVLYEMLYGLPPFYSRNTAEMYDNILNKPLQLKPNITNSARHLLEGLLQKDRTKRLGAKDDFMEIKSHVFF
B6 was tested, and the “effect on cell growth (cell foci assay)” value (mammary tumor cells) was “little or no effect on cell growth”.

B7: N60–431: N-terminal truncated Sgk (protein, UniProt O00141 60-431, looked up, fragment)
chain: ISQPQEPELMNANPSPPPSPSQQINLGPSSNPHAKPSDFHFLKVIGKGSFGKVLLARHKAEEVFYAVKVLQKKAILKKKEEKHIMSERNVLLKNVKHPFLVGLHFSFQTADKLYFVLDYINGGELFYHLQRERCFLEPRARFYAAEIASALGYLHSLNIVYRDLKPENILLDSQGHIVLTDFGLCKENIEHNSTTSTFCGTPEYLAPEVLHKQPYDRTVDWWCLGAVLYEMLYGLPPFYSRNTAEMYDNILNKPLQLKPNITNSARHLLEGLLQKDRTKRLGAKDDFMEIKSHVFFSLINWDDLINKKITPPFNPNVSGPNDLRHFDPEFTEEPVPNSIGKSPDSVLVTASVKEAAEAFLGFSYAPPTDSFL
B7 was tested, and the “effect on cell growth (cell foci assay)” value (mammary tumor cells) was “more effectively suppresses tumor cell growth compared to the full length Sgk protein”.

— patent US7087392B2, “Antiproliferative SgK reagents and methods” (The Regents of the University of California, priority 1999, dated 2006)
